According to ChEMBL document CHEMBL1795293, “Novel pentamidine derivatives: synthesis, anti-tumor properties and polynucleotide-binding activities” (Eur J Med Chem, 2011):
Active and inactive are the calls of the source. The rule behind the calls is not given here.

Experiments:
[1] = system: Nucleic Acid; assay: Binding affinity to Poly A-Poly U RNA assessed as change in melting temperature at 0.3 compound to polynucleotide ratio by UV-VIS spectral study; type: nucleic-acid assay
[2] = system: Nucleic Acid; assay: Binding affinity to Poly dA-Poly dT DNA assessed as change in melting temperature at 0.3 compound to polynucleotide ratio by UV-VIS spectral study; type: nucleic-acid assay
[3] = system: Nucleic Acid; assay: Binding affinity to calf thymus DNA assessed as change in melting temperature at 0.3 ratio compound/polynucleotide by UV-VIS spectral study; type: nucleic-acid assay; conditions: Bos taurus
[4] = system: MCF7; assay: Cytotoxicity against human MCF7 cells after 72 hrs by MTT assay; type: functional, cell-based; conditions: MCF7, 72 h
[5] = molecular target: Nucleic Acid; assay: Binding affinity to Poly A-Poly U RNA assessed as ratio of ethidium bromide /compound at which 50% of ethidium bromide fluorescence is quenched by displacement assay; type: nucleic-acid assay
[6] = system: HeLa; assay: Cytotoxicity against human HeLa cells after 72 hrs by MTT assay; type: functional, cell-based
[7] = system: SW-620; assay: Cytotoxicity against human SW620 cells after 72 hrs by MTT assay; type: functional, cell-based; conditions: SW-620, 72 h
[8] = molecular target: Nucleic Acid; assay: Binding affinity to Poly dA-Poly dT DNA assessed as ratio of ethidium bromide /compound at which 50% of ethidium bromide fluorescence is quenched by displacement assay; type: nucleic-acid assay
[9] = system: HEp-2; assay: Cytotoxicity against human Hep2 cells after 72 hrs by MTT assay; type: functional, cell-based; conditions: HEp-2, 72 h
[10] = system: MIA PaCa-2; assay: Cytotoxicity against human MIAPaCa2 cells after 72 hrs by MTT assay; type: functional, cell-based; conditions: MIA PaCa-2, 72 h
[11] = molecular target: Nucleic Acid; assay: Binding affinity to Poly G-Poly C RNA assessed as ratio of ethidium bromide /compound at which 50% of ethidium bromide fluorescence is quenched by displacement assay; type: nucleic-acid assay
[12] = system: Nucleic Acid; assay: Binding affinity to calf thymus DNA assessed as ratio of ethidium bromide /compound at which 50% of ethidium bromide fluorescence is quenched by displacement assay; type: nucleic-acid assay, Bos taurus
[13] = system: Nucleic Acid; assay: Binding affinity to Poly A-Poly U RNA measured at 290 nm wavelength at 0.1 compound to polynucleotide ratio by circular dichroism spectroscopy; type: nucleic-acid assay
[14] = system: Nucleic Acid; assay: Binding affinity to Poly A-Poly U RNA measured at 326 nm wavelength at 0.7 compound to polynucleotide ratio by circular dichroism spectroscopy; type: nucleic-acid assay
[15] = system: Nucleic Acid; assay: Binding affinity to Poly G-Poly C RNA at 0.2-0.3 compound to polynucleotide ratio by circular dichroism spectroscopy; type: nucleic-acid assay
[16] = system: Nucleic Acid; assay: Binding affinity to Poly G-Poly C RNA at < 0.3 compound to polynucleotide ratio by circular dichroism spectroscopy; type: nucleic-acid assay
[17] = system: Nucleic Acid; assay: Binding affinity to double strand calf thymus DNA measured at 300 to 330 nm wavelength at 0.1 compound to polynucleotide ratio by circular dichroism spectroscopy; type: nucleic-acid assay; conditions: Bos taurus
[18] = system: Nucleic Acid; assay: Binding affinity to double strand Poly dA-Poly dT DNA measured at 300 to 330 nm wavelength at 0.1 compound to polynucleotide ratio by circular dichroism spectroscopy; type: nucleic-acid assay
[19] = system: Nucleic Acid; assay: Binding affinity to double strand Poly dA-Poly dT DNA measured at 300 to 330 nm wavelength at 0.3 compound to polynucleotide ratio by circular dichroism spectroscopy; type: nucleic-acid assay
[20] = system: Nucleic Acid; assay: Binding affinity to Poly dA-Poly dT DNA assessed as change in melting temperature at 0.5 compound to polynucleotide ratio by UV-VIS spectral study; type: nucleic-acid assay
[21] = system: Nucleic Acid; assay: Binding affinity to double strand calf thymus DNA measured at 300 to 330 nm wavelength at 0.3 compound to polynucleotide ratio by circular dichroism spectroscopy; type: nucleic-acid assay; conditions: Bos taurus
[22] = system: Nucleic Acid; assay: Binding affinity to Poly G-Poly C RNA at 0.5 compound to polynucleotide ratio by circular dichroism spectroscopy; type: nucleic-acid assay
[23] = system: Nucleic Acid; assay: Binding affinity to Poly A-Poly U RNA assessed as change in melting temperature at 0.5 compound to polynucleotide ratio by UV-VIS spectral study; type: nucleic-acid assay
[24] = system: Nucleic Acid; assay: Binding affinity to double strand Poly dA-Poly dT DNA measured at 300 to 330 nm wavelength at > 0.5 compound to polynucleotide ratio by circular dichroism spectroscopy; type: nucleic-acid assay
[25] = system: Nucleic Acid; assay: Binding affinity to Poly A-Poly U RNA at 0.5 compound to polynucleotide ratio by circular dichroism spectroscopy; type: nucleic-acid assay
[26] = system: Nucleic Acid; assay: Binding affinity to Poly G-Poly C RNA at 0.7 compound to polynucleotide ratio by circular dichroism spectroscopy; type: nucleic-acid assay
[27] = system: Nucleic Acid; assay: Binding affinity to Poly A-Poly U RNA measured at 300 to 330 nm wavelength at < 0.3 compound to polynucleotide ratio by circular dichroism spectroscopy; type: nucleic-acid assay
[28] = system: Nucleic Acid; assay: Binding affinity to calf thymus DNA by UV-VIS spectral study; type: nucleic-acid assay; conditions: Bos taurus
[29] = system: Nucleic Acid; assay: Binding affinity to calf thymus DNA assessed as change in melting temperature at 0.5 compound to polynucleotide ratio by UV-VIS spectral study; type: nucleic-acid assay; conditions: Bos taurus
[30] = system: Nucleic Acid; assay: Binding affinity to Poly G-Poly C RNA at 0.1 compound to polynucleotide ratio by circular dichroism spectroscopy; type: nucleic-acid assay
[31] = system: Nucleic Acid; assay: Binding affinity to double strand calf thymus DNA measured at 300 to 330 nm wavelength at > 0.5 compound to polynucleotide ratio by circular dichroism spectroscopy; type: nucleic-acid assay; conditions: Bos taurus
[32] = system: NCI-H460; assay: Cytotoxicity against human H460 cells after 72 hrs by MTT assay; type: functional, cell-based; conditions: NCI-H460, 72 h
[33] = system: HCT-116; assay: Cytotoxicity against human HCT116 cells after 72 hrs by MTT assay; type: functional, cell-based; conditions: HCT-116, 72 h
[34] = system: MOLT-4; assay: Cytotoxicity against human MOLT4 cells after 72 hrs by MTT assay; type: functional, cell-based; conditions: MOLT-4, 72 h
[35] = system: Nucleic Acid; assay: Binding affinity to Poly A-Poly U RNA measured at 299 nm wavelength at < 0.3 compound to polynucleotide ratio by circular dichroism spectroscopy; type: nucleic-acid assay
[36] = system: Nucleic Acid; assay: Stabilization of double helix calf thymus DNA by spectroscopy; type: nucleic-acid assay; conditions: Bos taurus
[37] = system: Nucleic Acid; assay: Binding affinity to Poly A-Poly U RNA measured at 303 nm wavelength at < 0.3 compound to polynucleotide ratio by circular dichroism spectroscopy; type: nucleic-acid assay

SMILES | ΔTm [1] | ΔTm [2] | ΔTm [3] | IC50 [4] | IC50 [5] | IC50 [6] | IC50 [7] | IC50 [8] | IC50 [9] | IC50 [10] | IC50 [11] | IC50 [12] | ΔTm [20] | ΔTm [23] | Activity [27] | ΔTm [29] | IC50 [32] | IC50 [33] | IC50 [34] | further results
Cl.Cl.N=C(N)c1ccc(NC(=O)c2ccc(C(=O)Nc3ccc(C(=N)N)cc3)o2)cc1 | 1.6 °C | 30.2 °C | 7.5 °C | 5 µM | 1 molar ratio | > 100 µM | > 100 µM | 2.1 molar ratio | 11 µM | 53 µM | 0.36 molar ratio | 0.8 molar ratio |  |  |  |  |  |  |  | 
CC(C)NC(=N)c1ccc(NC(=O)c2ccc(C(=O)Nc3ccc(C(=N)NC(C)C)cc3)o2)cc1.Cl.Cl | 4.5 °C | 29.5 °C | 5.6 °C | 4 µM | 0.03 molar ratio | 50 µM | 4 µM | 2.23 molar ratio | 5 µM | 79 µM | 0.2 molar ratio | 0.36 molar ratio | 31.7 °C | 20.1 °C | Active | 6.6 °C |  |  |  | Activity [13]: Active; Activity [14]: Active; Activity [15]: Active; Activity [16]: Active; Activity [17]: Active; Activity [18]: Active; Activity [19]: inactive; Activity [21]: inactive; Activity [22]: Active; Activity [24]: Active; Activity [25]: Active; Activity [26]: Active; Ks [28]: 6.3 ×10⁴ /M; Activity [30]: Active; Activity [31]: Active
Cl.Cl.N=C(N)c1ccc(C(=O)Nc2cccc(NC(=O)c3ccc(C(=N)N)cc3)n2)cc1 | 1 °C | 29.3 °C | 13.5 °C | 12 µM | 0.5 molar ratio | 19 µM | > 100 µM | 1.7 molar ratio | 21 µM | 13 µM | 0.07 molar ratio | 0.19 molar ratio | 30.9 °C | 18.7 °C | Active | 15 °C | 17 µM | 67 µM | > 100 µM | Activity [35]: inactive
CC(C)NC(=N)c1ccc(NC(=O)c2cccc(C(=O)Nc3ccc(C(=N)NC(C)C)cc3)n2)cc1.Cl.Cl | 3.1 °C | 24.1 °C | 8.5 °C | 32 µM | 0.17 molar ratio | 53 µM | > 100 µM | 1.37 molar ratio | 30 µM | > 100 µM | 0.1 molar ratio | 0.15 molar ratio | 25.5 °C | 3.7 °C | Active | 10.3 °C | > 100 µM | > 100 µM | > 100 µM | 
CC(C)NC(=N)c1ccc(C(=O)Nc2cccc(NC(=O)c3ccc(C(=N)NC(C)C)cc3)n2)cc1.Cl.Cl | 3.7 °C | 30.5 °C | 13.1 °C | 24 µM | 0.07 molar ratio | 56 µM | > 100 µM | 2 molar ratio | 38 µM | > 100 µM | 0.07 molar ratio | 0.13 molar ratio | 32.2 °C | 5.7 °C | Active | 14.5 °C | > 100 µM | > 100 µM | > 100 µM | Activity [35]: Active
N#Cc1ccc(NC(=O)c2ccc(C(=O)Nc3ccc(C#N)cc3)o2)cc1 |  |  |  | > 100 µM |  | > 100 µM | > 100 µM |  | > 100 µM | > 100 µM |  |  |  |  |  |  |  |  |  | 
N=C(N)c1ccc(NC(=O)c2ccco2)cc1 |  |  |  | 33 µM |  | > 100 µM | > 100 µM |  | > 100 µM | > 100 µM |  |  |  |  |  |  |  |  |  | Activity [36]: inactive
N#Cc1ccc(NC(=O)c2ccco2)cc1 |  |  |  | 32 µM |  | 47 µM | > 100 µM |  | > 100 µM | > 100 µM |  |  |  |  |  |  |  |  |  | 
Cl.Cl.N=C(N)c1ccc(NC(=O)c2cccc(C(=O)Nc3ccc(C(=N)N)cc3)n2)cc1 | 1 °C | 20.4 °C | 6.7 °C | > 100 µM | 0.47 molar ratio | 18 µM | > 100 µM | 1.6 molar ratio | 47 µM | 13 µM | 0.25 molar ratio | 0.3 molar ratio |  |  | Active |  | 19 µM | > 100 µM | > 100 µM | Activity [37]: Active
CC(C)NC(=N)c1ccc(NC(=O)c2ccco2)cc1 |  |  |  | > 100 µM |  | 60 µM | > 100 µM |  | > 100 µM | > 100 µM |  |  |  |  |  |  |  |  |  | Activity [36]: inactive
